The test system of series [1] is sensitized Brown Norway rats. Put plainly: Ovalbumin-induced accumulation of inflammatory cells in lung lavage fluid of sensitized Brown Norway rats. It is filed as in vivo, rat. As to conditions: 5 mg/kg/day for 4 days, p.o., corn oil vehicle; relative to control animals. The essentials:
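Male Brown Norway rats were sensitized i.p. with 1 mg ovalbumin on alum on day 1 and challenged on day 21 with nebulized 0.5% ovalbumin for 60 min. Compound was dosed in 300 μl corn oil or water, with vehicle controls.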

The subject of series [2] is mouse ear edema. Put plainly: Irritant-induced (phorbol 12-myristate 13-acetate) mouse ear edema. The series is classed as in vivo. The following applies: 15 mg/kg orally in 45% β-cyclodextrin in saline; 3 hours after PMA; compared to control animals. As to the method: A number of mice are uniquely identified by placing a mark with an indelible marker on their tail. Mice are dosed orally with 15 mg/kg test compound in 100 μl of 45% β-cyclodextrin in saline. Mice are briefly anaesthesized with 2% halothane, and 2 μg of phorbol 12-myristate 13-acetate in 25 μl of acetone is applied to the inner and outer sides of the left ear of the mouse. Acetone is applied to the right ear of the mouse in the same manner to serve as a vehicle control. Control animals receive the same treatment but without any test compound. After 3 hours, mice are sacrificed by cervical dislocation, and a standard sized biopsy is excised from the ears and weighed to the nearest 1/10th of a mg. Data are analyzed by taking the difference of each left ear from the right ear, and then calculating the % inhibition of edema by (((mean Rx/mean irritant))×100)-100.
For example, compound 83 inhibits irritant-induced mouse ear edema by 38% compared to control animals.

A short description of series [3]: Metabolic stability in human liver S9 fractions. It is filed as in vitro ADME. As to conditions: human, 10 μM, pH 7. From the text:
The therapeutic effectiveness of a test compound can be often directly related to its metabolic stability in vivo. The majority of known, marketed drugs are metabolized by a group of enzymes known as P450 enzymes. The S9 fraction of human liver contains all the P450 enzymes and also cytoplasmic enzymes that may be involved in the metabolism of new chemical entities. Metabolism in vitro using human S9 fractions is a standard assay to evaluate relative metabolic stability of new compounds. The test is performed as follows.
Reagents are thawed on ice and combined to make up a Master Mix as follows: Potassium phosphate (100 mM, pH 7), G6P (0.25 mM), G6PDH (2 U/ml), NADPH (1 mM), UDP (0.25 mM), APPS (0.25 mM), and S9 fraction (2 mg/ml). A volume of 498 μl of the Master mix is dispensed into each microcentrifuge tube. A volume of 2 μl of 2.5 mM test compound (final concentration of 10 μM) is dispensed into the center of the lid of the appropriate tube, and the lids gently closed to prevent mixing. Synchronous combination of test compound and master mix is achieved by simultaneous ten times inversion of the tubes, which are then incubated at 37° C. and shaken at 150 rpm for the appropriate incubation times. While incubation is in progress, all 0 time samples are mixed individually by three times inversion followed by the immediate addition of 500 μl ice cold acetonitrile with three times inversion to stop the reaction. Immediately after each 15 minutes and 30 minutes incubation is complete, ice cold acetonitrile is added to each tube and the tubes mixed by three times inversion. All sample tubes are incubated at −80° C. for a minimum of 15 minutes, thawed and remixed by inversion. Aliquots of 650 μl are transferred to Chromatographic Specialties micro-spin filter system tubes (0.2 μm nylon membrane, C618505) and centrifuged at 13,000 rpm for 48 seconds. The sample filtrates are stored at −80° C.
Sample filtrates are analyzed on LCMS, and percent remaining after 15 and 30 minute incubation is calculated relative to the 0 minute incubation.
The metabolic stability of various compounds are summarized in Table 10 as the percent remaining after 15 or 30 minutes incubation with human liver S9 fractions.

For the compound `C/C=C1/CCC2C3C(CC[C@]12C)[C@@]1(C)CC[C@H](N)CC1[C@@H](O)[C@@H]3O` (stereo partly drawn) [Compound 83], in series [1], the “% inhibition of eosinophils” value came to 67%, the “% inhibition of lymphocytes” value is recorded as 38% and the “% inhibition of neutrophils” value amounted to 34%. The “inhibition of irritant-induced mouse ear edema” value in series [2] amounted to 38%. Further, in series [3] (s9, 15 min), the “% remaining after 15 min” value is 92 ± 19%. The “% remaining after 30 min” value in series [3] (s9, 30 min) worked out at 91 ± 21%.
